Converted amounts (≈) assume the structure as drawn. A value given as a limit tells only on which side of the number the result lay.

The subject of this assay is Staphylococcus aureus. Kind of assay: Antimicrobial activity against Staphylococcus aureus ATCC 25923 assessed as inhibition of bacterial growth measured after 20 hrs by CLSI protocol based Muller Hinton broth assay. In kind it is functional.
For the compound `CCCCCCCCCNC(=O)[C@H](CCCCN)NC(=O)[C@H](CCCCN)NC(=O)c1ccc(C(=O)N2CCN(c3cc4c(cc3F)c(=O)c(C(=O)O)cn4C3CC3)CC2)cc1`, the MIC came out at 6.25 µg/mL (≈ 7.26 µM). With `CCCCCCCCCCCCNC(=O)[C@H](CCCCN)NC(=O)[C@H](CCCCN)NC(=O)[C@H](CCCCN)NC(=O)CCC(=O)N1CCN(c2cc3c(cc2F)c(=O)c(C(=O)O)cn3C2CC2)CC1` the figure was > 50 µg/mL; with `NCCCC[C@H](NC(=O)c1ccc(C(=O)N2CCN(c3cc4c(cc3F)c(=O)c(C(=O)O)cn4C3CC3)CC2)cc1)C(=O)NCc1ccccc1Cl`, 25 µg/mL (≈ 34.2 µM). In the case of `NCCCC[C@H](NC(=O)c1ccc(C(=O)N2CCN(c3cc4c(cc3F)c(=O)c(C(=O)O)cn4C3CC3)CC2)cc1)C(=O)NCc1ccccc1`, the MIC is 25 µg/mL (≈ 35.9 µM). To `CCCCCCCCCCCCNC(=O)[C@H](CCCCN)NC(=O)[C@H](CCCCN)NC(=O)[C@H](CCCCN)NC(=O)CCNC(=O)CCNC(=O)CCC(=O)N1CCN(c2cc3c(cc2F)c(=O)c(C(=O)O)cn3C2CC2)CC1` belongs 6.25 µg/mL (≈ 5.55 µM). With `N=C(N)NCCC[C@H](N)C(=O)N1CCN(c2cc3c(cc2F)c(=O)c(C(=O)O)cn3C2CC2)CC1`, the MIC is ≥ 12.5 µg/mL. To `CCCCCCCCCNC(=O)[C@H](CCCCN)NC(=O)[C@H](CCCCN)NC(=O)[C@H](CCCNC(=N)N)NC(=O)c1ccc(C(=O)N2CCN(c3cc4c(cc3F)c(=O)c(C(=O)O)cn4C3CC3)CC2)cc1` belongs 3.12 µg/mL (≈ 3.07 µM); to `CCCCCCCCNC(=O)[C@H](CCCCN)NC(=O)c1ccc(C(=O)N2CCN(c3cc4c(cc3F)c(=O)c(C(=O)O)cn4C3CC3)CC2)cc1`, 12.5 µg/mL (≈ 17.4 µM). Regarding `CCCCCCCCCNC(=O)[C@H](Cc1c[nH]cn1)NC(=O)[C@H](CCCCN)NC(=O)[C@H](CCCCN)NC(=O)c1ccc(C(=O)N2CCN(c3cc4c(cc3F)c(=O)c(C(=O)O)cn4C3CC3)CC2)cc1`, the MIC was 6.25 µg/mL (≈ 6.26 µM). With `CCCCCCCCCCCCNC(=O)[C@H](CCCCN)NC(=O)[C@H](CCCCN)NC(=O)c1ccc(C(=O)N2CCN(c3cc4c(cc3F)c(=O)c(C(=O)O)cn4C3CC3)CC2)cc1` the figure was 25 µg/mL (≈ 27.7 µM). On to `CCCCCCCCCCCCCCNC(=O)[C@H](CCCCN)NC(=O)c1ccc(C(=O)N2CCN(c3cc4c(cc3F)c(=O)c(C(=O)O)cn4C3CC3)CC2)cc1`, for which the MIC was 25 µg/mL (≈ 31.1 µM).

Consider `CCCCCCCCCCCC(=O)N[C@@H](CCCNC(=N)N)C(=O)N1CCN(c2cc3c(cc2F)c(=O)c(C(=O)O)cn3C2CC2)CC1`, for which the MIC was found to be 6.25 µg/mL (≈ 9.33 µM). Regarding `O=C(CC12CC3CC(CC(C3)C1)C2)N[C@@H](Cc1c[nH]cn1)C(=O)N1CCN(c2cc3c(cc2F)c(=O)c(C(=O)O)cn3C2CC2)CC1`, the MIC stood at 6.25 µg/mL (≈ 9.69 µM). To `CCCCCCCCCCCCNC(=O)[C@H](CCCCN)NC(=O)[C@H](CCCCN)NC(=O)[C@H](CCCCN)NC(=O)CCNC(=O)CCC(=O)N1CCN(c2cc3c(cc2F)c(=O)c(C(=O)O)cn3C2CC2)CC1` belongs > 50 µg/mL; to `CCCCCCCCCCCCNC(=O)[C@H](CCCCN)NC(=O)c1ccc(C(=O)N2CCN(c3cc4c(cc3F)c(=O)c(C(=O)O)cn4C3CC3)CC2)cc1`, 50 µg/mL (≈ 64.5 µM); to `CCCCCCCCCCCCCCCCNC(=O)[C@H](CCCCN)NC(=O)c1ccc(C(=O)N2CCN(c3cc4c(cc3F)c(=O)c(C(=O)O)cn4C3CC3)CC2)cc1`, > 100 µg/mL. With `CCCCCCCCCCCCCCCCNC(=O)[C@H](CCCCN)NC(=O)[C@H](CCCCN)NC(=O)[C@H](CCCCN)NC(=O)c1ccc(C(=O)N2CCN(c3cc4c(cc3F)c(=O)c(C(=O)O)cn4C3CC3)CC2)cc1` the figure was > 50 µg/mL.

For the origin of these results see ChEMBL document CHEMBL6134830, “Naturally inspired chimeric quinolone derivatives to reverse bacterial drug resistance” (Eur J Med Chem, 2025).
